What was measured:
[1] = tested on: C. beijerinckii NCIMB 8052; experiment: Germination and sequential batch cultures of C. beijerinckii NCIMB 8052 grown at 37° C. (growth OD600, final pH, ceric ion reactive compounds); assay type: cell-based, Clostridium beijerinckii
Protocol: (§1) Clostridium acetobutylicum ATCC 824 and C. beijerinckii NCIMB 8052 are available from several commercial microbial culture collections including the American Type Culture Collection (ATCC), Manassas, Va., USA. The strain grown at 30 C or 37 C in YE broth, which contained, per liter: 5.0 g yeast extract, 2.5 g casamino acids, 1.0 g L-asparagine, 0.5 g cysteine·HCl, 56 mg K2HPO4, 56 mg KH2PO4, 82 mg anhydrous MgSO4, 8 mg FeSO4.H2O, 6 mg MnSO4.H2O and 10 g glucose. Alternatively, strains were grown in YEPG broth, which was identical to YE expect that K2HPO4 and KH2PO4 were increased to 145 mg/L each and glucose was increased to 60 g/L. The pH of the media was adjusted to 7.2 using 45% KOH prior to sterilization by autoclaving. Media were solidified by addition of 1.5% Bacteriological Agar, Acumedia Manufacturers, Inc., Lansing, Mich. All cultures were grown in anaerobic conditions using the AnaeroPack System, Mitsubishi Gas Chemical Co., Inc., Japan, and GasPak EZ Gas Generating Sachets, Becton, Dickinson and Co., Sparks, Md. Spore stocks were kept at room temperature on agar-solidified media and were activated by suspending spores in 0.5 mL to 1.0 mL of medium followed by heating for 10 min at 80 C before inoculation into growth medium.
(§2) Growth of bacterial cultures was measured spectrophotometrically using optical density at 600 nm and pH of cell-free culture supernatants was measured using a hand-held Shindengen ISFET pH Meter KS501, Shendengen Electric Manufacturing Co., Ltd., Bannockburn, Ill.
(§3) Total alcohols in cell-free culture supernatants were measured using a modification of a colorimetric method based on ceric ammonium nitrate (Reid and Truelove, 1952). The ceric ion reagent was prepared by adding 1.3 mL of concentrated nitric acid to 40 mL of distilled water, then 10.96 g of ceric ammonium nitrate was dissolved in the dilute nitric acid solution and the solution was brought to a final volume of 50 mL. For the assay, […] of butanol standard or culture supernatant was mixed with […] distilled water in a disposable plastic cuvette followed by addition of […] of the ceric ion reagent. The sample was mixed by inverting the cuvette six times then exactly two minutes later the optical density at 500 nm wavelength was measured. The concentration of total alcohols was determined by comparison with a standard curve prepared by using butanol diluted in distilled water.
Spores of C. beijerinckii NCIMB 8052 were germinated and grown overnight at 37 C under anaerobic conditions in YEPG medium that either contained 50 nM of peptide SEQ ID NO: 145 or no added peptide. After about 24 h of growth, […] of the untreated culture was transferred (transfer 1) to each of two flasks that contained 10 mL of YEPG with either no treatment or with 50 nM peptide SEQ ID NO: 145. At the same time, 10 μL of the culture that was germinated in the presence of peptide SEQ ID NO: 145 was also transferred to 10 mL of YEPG that contained 50 nM of peptide SEQ ID NO: 145. Thereafter, […] of each culture was transferred, at the same time, every 24-48 h to 10 mL of fresh YEPG that contained the same peptide treatment or no treatment. Each culture was stopped after 72 hours of incubation and optical density, pH and ceric ion reactive chemicals were measured. Addition of peptide SEQ ID NO: 145 appeared to have no effect on endpoint measurements of the growth of C. beijerinckii NCIMB 8052 after germination or during sequential transfers of cultures at 37° C. (Table 18 and FIG. 10). All three cultures stopped growing at the second transfer. Likewise, there was no apparent effect on endpoint measurements of pH or ceric ion reactive compounds (Tables 19 and 20 and FIGS. 11 and 12).

[2] = tested on: C. beijerinckii NCIMB 8052; experiment: Sequential batch cultures of C. beijerinckii NCIMB 8052 grown at 30° C. in YEPG (growth OD600, final pH, ceric ion reactive compounds); assay type: cell-based, Clostridium beijerinckii
Protocol: as §1, §2, §3
Spores of C. beijerinckii NCIMB 8052 were germinated and grown overnight at 30 C under anaerobic conditions in YEPG medium. After about 24 h of growth, […] of the culture was transferred (transfer 1) to each of four flasks that contained 10 mL of YEPG and either had no treatment or were treated with peptide SEQ ID NO: 145 (see Table 8) at 1 nM, 10 nM or 50 nM. Thereafter, […] of each culture was transferred, at the same time, every 24-48 h to 10 mL of fresh YEPG that contained the same peptide treatment or no treatment. Each culture was stopped after 96 hours of incubation and optical density, pH and ceric ion reactive chemicals were measured. Sequential batch culturing was continued through 6 transfers at which point all cultures appeared to be growing to the same extent (Table 12 and FIG. 4).

[3] = 50 nM added after germination, transfer 1, 72 h culture
[4] = 50 nM added after germination, transfer 2, 72 h culture
[5] = 50-50 (germinated and transferred in 50 nM), transfer 1, 72 h culture
[6] = 50-50 (germinated and transferred in 50 nM), transfer 2, 72 h culture
[7] = 50-50 (spores germinated in 50 nM peptide), transfer 0 (germinated culture), 72 h culture
[8] = 10 nM, transfer 1, 96 h culture
[9] = 10 nM, transfer 2, 96 h culture
[10] = 10 nM, transfer 3, 96 h culture
[11] = 10 nM, transfer 4, 96 h culture
[12] = 10 nM, transfer 5, 96 h culture
[13] = 10 nM, transfer 6, 96 h culture
[14] = 50 nM, transfer 1, 96 h culture
[15] = 50 nM, transfer 2, 96 h culture
[16] = 50 nM, transfer 3, 96 h culture
[17] = 50 nM, transfer 4, 96 h culture
[18] = 50 nM, transfer 5, 96 h culture
[19] = 50 nM, transfer 6, 96 h culture

IRLIT (Derived from Clostridium beijerinckii SEQ ID NO: 141) [peptide SEQ ID NO: 145]
Effect on germination and growth (visual observations through the course of growth) ([1]; 50 nM): repressive effect on germination and growth
Final pH [1, 3]: 4.1
Optical density at 600 nm [1, 3]: 1.313
Optical density of ceric ion reactive compounds measured at 500 nm [1, 3]: −0.026
Final pH [1, 4]: 6.5
Optical density at 600 nm [1, 4]: 0.011
Optical density of ceric ion reactive compounds measured at 500 nm [1, 4]: 0.006
Effect on endpoint measurements of growth ([1]; 50 nM, after germination or during sequential transfers): no effect
Final pH [1, 5]: 4.1
Optical density at 600 nm [1, 5]: 1.420
Optical density of ceric ion reactive compounds measured at 500 nm [1, 5]: −0.038
Final pH [1, 6]: 6.6
Optical density at 600 nm [1, 6]: 0.011
Optical density of ceric ion reactive compounds measured at 500 nm [1, 6]: 0.002
Final pH [1, 7]: 4.1
Optical density at 600 nm [1, 7]: 1.158
Optical density of ceric ion reactive compounds measured at 500 nm [1, 7]: −0.017
Culture degeneration in terms of production of total alcohols [2]: transiently increase culture degeneration
Final pH ([2]; 1 nM, transfer 1, 96 h culture): 5.3
Optical density at 600 nm ([2]; 1 nM, transfer 1, 96 h culture): 2.086
Optical density of ceric ion reactive compounds measured at 500 nm ([2]; 1 nM, transfer 1, 96 h culture): 0.065
Final pH ([2]; 1 nM, transfer 2, 96 h culture): 5.3
Optical density at 600 nm ([2]; 1 nM, transfer 2, 96 h culture): 2.086
Optical density of ceric ion reactive compounds measured at 500 nm ([2]; 1 nM, transfer 2, 96 h culture): 0.032
Final pH ([2]; 1 nM, transfer 3, 96 h culture): 5.1
Optical density at 600 nm ([2]; 1 nM, transfer 3, 96 h culture): 2.106
Optical density of ceric ion reactive compounds measured at 500 nm ([2]; 1 nM, transfer 3, 96 h culture): 0.054
Final pH ([2]; 1 nM, transfer 4, 96 h culture): 5.3
Optical density at 600 nm ([2]; 1 nM, transfer 4, 96 h culture): 2.115
Optical density of ceric ion reactive compounds measured at 500 nm ([2]; 1 nM, transfer 4, 96 h culture): 0.041
Final pH ([2]; 1 nM, transfer 5, 96 h culture): 5.3
Optical density at 600 nm ([2]; 1 nM, transfer 5, 96 h culture): 2.090
Optical density of ceric ion reactive compounds measured at 500 nm ([2]; 1 nM, transfer 5, 96 h culture): 0.061
Final pH ([2]; 1 nM, transfer 6, 96 h culture): 5.3
Optical density at 600 nm ([2]; 1 nM, transfer 6, 96 h culture): 2.075
Optical density of ceric ion reactive compounds measured at 500 nm ([2]; 1 nM, transfer 6, 96 h culture): 0.062
Final pH [2, 8]: 5.3
Optical density at 600 nm [2, 8]: 2.080
Optical density of ceric ion reactive compounds measured at 500 nm [2, 8]: 0.050
Final pH [2, 9]: 5.3
Optical density at 600 nm [2, 9]: 2.093
Optical density of ceric ion reactive compounds measured at 500 nm [2, 9]: 0.008
Final pH [2, 10]: 5.0
Optical density at 600 nm [2, 10]: 2.078
Optical density of ceric ion reactive compounds measured at 500 nm [2, 10]: 0.025
Final pH [2, 11]: 5.3
Optical density at 600 nm [2, 11]: 2.108
Optical density of ceric ion reactive compounds measured at 500 nm [2, 11]: 0.047
Final pH [2, 12]: 5.4
Optical density at 600 nm [2, 12]: 2.069
Optical density of ceric ion reactive compounds measured at 500 nm [2, 12]: 0.065
Final pH [2, 13]: 5.3
Optical density at 600 nm [2, 13]: 2.062
Optical density of ceric ion reactive compounds measured at 500 nm [2, 13]: 0.055
Final pH [2, 14]: 5.4
Optical density at 600 nm [2, 14]: 2.102
Optical density of ceric ion reactive compounds measured at 500 nm [2, 14]: 0.060
Final pH [2, 15]: 5.3
Optical density at 600 nm [2, 15]: 2.023
Optical density of ceric ion reactive compounds measured at 500 nm [2, 15]: 0.023
Final pH [2, 16]: 5.2
Optical density at 600 nm [2, 16]: 1.936
Final pH [2, 17]: 5.3
Optical density at 600 nm [2, 17]: 2.061
Optical density of ceric ion reactive compounds measured at 500 nm [2, 17]: 0.039
Final pH [2, 18]: 5.3
Optical density at 600 nm [2, 18]: 2.120
Optical density of ceric ion reactive compounds measured at 500 nm [2, 18]: 0.051
Final pH [2, 19]: 5.3
Optical density at 600 nm [2, 19]: 2.046
Optical density of ceric ion reactive compounds measured at 500 nm [2, 19]: 0.059
Growth of treated cultures during 96 h of incubation ([2]; 1, 10, 50 nM, dose dependent manner, data not shown): slow the growth
Final pH ([2]; all cultures (0, 1, 10, 50 nM), after the third transfer): ~5.3
Number of times that cultures could be transferred ([2]; through six culture transfers, in comparison with an untreated culture): did not affect

— patent publication US20150031102A1, “METHODS AND COMPOSITIONS FOR ENHANCED PRODUCTION OF BUTANOL BY CLOSTRIDIA” (Butrolix LLC, priority 2012, published 2015)
